Experimental data as given in patent publication US5182273A, “Spirocyclic N, O derivatives of cyclotriphosphazenes and their use in therapy” (Pierre Fabre Medicament, priority 1990, dated 1993).

These compounds were tested on mouse L1210 leukemic cells (assay: In vitro cytotoxicity, inhibition of cell growth (cell counter)). Conditions: read-out: IC50 (concentration for which 50% inhibition of cell growth is obtained).
Type: cell-based
Procedure: The cytotoxic activity in vitro was evaluated by the determination of the IC50 (concentration for which 50% inhibition of cell growth is obtained) on mouse L1210 leukemic cells.
The IC50 is evaluated by means of a cell counter.
In the case of C1CCC(N2CCCOP23=NP(N2CC2)(N2CC2)=NP(N2CC2)(N2CC2)=N3)CC1 (centres unmarked) [Compound 4, 11-Cyclohexyl-2,2,4,4-tetra-1-aziridinyl-2,2,4,4-tetrahydro-7-oxa-1,3,5,11-tetraaza-2,4,6λ^5-triphosphaspiro-[5,5]-undeca-1,3,5-triene], the IC50 is reported as 9.9 µM. c1ccc(CN2CCOP23=NP(N2CC2)(N2CC2)=NP(N2CC2)(N2CC2)=N3)cc1 (centres unmarked) [Compound 5, 4-Phenylmethyl-7,7,9,9-tetra-1-aziridinyl-7,7,9,9-tetrahydro-1-oxa-4,6,8,10-tetraaza-5λ^5,7,9-triphosphaspiro-[4,5]-deca-5,7,9-triene] gave an IC50 of 5.8 µM. c1ccc(CCN2CCOP23=NP(N2CC2)(N2CC2)=NP(N2CC2)(N2CC2)=N3)cc1 (centres unmarked) [Compound 7, 4-(2-Phenylethyl)-7,7,9,9-tetra-1-aziridinyl-7,7,9,9-tetrahydro-1-oxa-4,6,8,10-tetraaza-5λ^5,7,9-triphosphaspiro-[4,5]-deca-5,7,9-triene] was tested, and the IC50 was 7.8 µM. For c1ccc(CCN2CCCOP23=NP(N2CC2)(N2CC2)=NP(N2CC2)(N2CC2)=N3)cc1 (centres unmarked) [Compound 8, 11-(2-Phenylethyl)-2,2,4,4-tetra-1-aziridinyl-2,2,4,4-tetrahydro-7-oxa-1,3,5,11-tetraaza-2,4,6λ^5-triphosphaspiro-[5,5]-undeca-1,3,5-triene], the IC50 was 6.5 µM. Work on C1COP2(=NP(N3CC3)(N3CC3)=NP(N3CC3)(N3CC3)=N2)N1 (centres unmarked) [Compound 2, 7,7,9,9-Tetra-1-aziridinyl-7,7,9,9-tetrahydro-1-oxa-4,6,8,10-tetraaza-5λ^5,7,9-triphosphaspiro-[4,5]-deca-5,7,9-triene] yielded an IC50 of 8.7 µM. With CN1CCOP12=NP(N1CC1)(N1CC1)=NP(N1CC1)(N1CC1)=N2 (centres unmarked) [Compound 1, 4-methyl-7,7,9,9-tetra-1-aziridinyl-7,7,9,9-tetrahydro-1-oxa-4,6,8,10-tetraaza-5λ^5-7,9-triphosphaspiro-[4,5]-deca-5,7,9-triene] the IC50 was 9 µM. Compound c1ccc(CN2CCCOP23=NP(N2CC2)(N2CC2)=NP(N2CC2)(N2CC2)=N3)cc1 (centres unmarked) [Compound 6, 11-Phenylmethyl-2,2,4,4-tetra-1-aziridinyl-2,2,4,4-tetrahydro-7-oxa-1,3,5,11-tetraaza-2,4,6λ^5-triphosphaspiro-[5,5]-undeca-1,3,5-triene] has an IC50 of 5.8 µM. C1CNP2(=NP(N3CC3)(N3CC3)=NP(N3CC3)(N3CC3)=N2)OC1 (centres unmarked) [Compound 3, 2,2,4,4-Tetra-1-aziridinyl-2,2,4,4-tetrahydro-7-oxa-1,3,5,11-tetraaza-2,4,6λ^5-triphosphaspiro-[5,5]-undeca-1,3,5-triene] showed an IC50 of 2.3 µM.
